Reference: article PMC8617627, “Novel DYRK1A Inhibitor Rescues Learning and Memory Deficits in a Mouse Model of Down Syndrome” (Pharmaceuticals, 2021)
Read-outs that look alike come from different tables or passages of the source.

Key:
Assay in all cases: Kinase profile (33P ATP filter binding)
Assay type in all cases: biochemical
PAK6 = PAK6 (Homo sapiens, UniProt Q9NQU5); conditions: read-out: Remaining protein kinase activity
GCK = target: T1, GCK (Homo sapiens, UniProt Q12851); conditions: read-out: Remaining protein kinase activity
T1 sequence (Q12851 1-820): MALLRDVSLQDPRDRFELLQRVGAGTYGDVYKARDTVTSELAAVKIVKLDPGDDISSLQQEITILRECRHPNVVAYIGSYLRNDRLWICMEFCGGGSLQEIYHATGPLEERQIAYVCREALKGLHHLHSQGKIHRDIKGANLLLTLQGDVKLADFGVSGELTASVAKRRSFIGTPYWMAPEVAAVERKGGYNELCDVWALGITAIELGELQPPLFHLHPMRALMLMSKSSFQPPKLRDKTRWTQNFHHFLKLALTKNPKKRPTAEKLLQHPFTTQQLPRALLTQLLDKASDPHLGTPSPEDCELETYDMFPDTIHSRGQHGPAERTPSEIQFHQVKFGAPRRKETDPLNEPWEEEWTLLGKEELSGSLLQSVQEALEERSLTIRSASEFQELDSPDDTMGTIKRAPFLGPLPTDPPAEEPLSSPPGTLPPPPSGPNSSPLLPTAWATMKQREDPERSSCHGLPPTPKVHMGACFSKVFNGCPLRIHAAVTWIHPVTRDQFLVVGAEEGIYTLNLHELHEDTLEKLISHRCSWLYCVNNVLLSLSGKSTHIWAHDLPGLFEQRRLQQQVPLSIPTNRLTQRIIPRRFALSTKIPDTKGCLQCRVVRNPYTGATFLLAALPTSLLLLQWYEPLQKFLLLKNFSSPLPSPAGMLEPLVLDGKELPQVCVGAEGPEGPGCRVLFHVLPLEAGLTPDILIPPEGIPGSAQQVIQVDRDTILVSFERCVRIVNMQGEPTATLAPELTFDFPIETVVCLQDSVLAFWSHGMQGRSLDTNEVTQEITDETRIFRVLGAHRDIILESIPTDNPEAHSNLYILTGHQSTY

RSK2 = RSK2 (Homo sapiens, UniProt P51812); conditions: read-out: Remaining protein kinase activity
Chain of RSK2 (P51812 whole entry, species assumed): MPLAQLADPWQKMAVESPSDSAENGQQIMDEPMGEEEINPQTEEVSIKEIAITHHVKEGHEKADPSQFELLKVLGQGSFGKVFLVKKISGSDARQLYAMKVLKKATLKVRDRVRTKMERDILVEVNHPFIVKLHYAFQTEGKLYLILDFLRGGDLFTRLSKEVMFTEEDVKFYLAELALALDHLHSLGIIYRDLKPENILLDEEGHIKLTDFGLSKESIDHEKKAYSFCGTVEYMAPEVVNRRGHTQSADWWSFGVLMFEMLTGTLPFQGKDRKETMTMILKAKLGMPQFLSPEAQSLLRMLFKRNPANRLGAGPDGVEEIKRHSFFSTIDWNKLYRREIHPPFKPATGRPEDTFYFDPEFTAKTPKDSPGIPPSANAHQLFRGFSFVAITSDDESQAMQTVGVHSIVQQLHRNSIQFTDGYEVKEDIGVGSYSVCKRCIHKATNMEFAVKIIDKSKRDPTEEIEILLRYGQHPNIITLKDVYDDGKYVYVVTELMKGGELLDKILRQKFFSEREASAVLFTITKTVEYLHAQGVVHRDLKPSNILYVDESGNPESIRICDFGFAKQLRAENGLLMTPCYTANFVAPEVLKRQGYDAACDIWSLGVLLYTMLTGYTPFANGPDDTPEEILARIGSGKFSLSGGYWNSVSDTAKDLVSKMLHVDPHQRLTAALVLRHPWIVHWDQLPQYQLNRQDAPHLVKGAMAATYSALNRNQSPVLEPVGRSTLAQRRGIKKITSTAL

TTBK2 = TTBK2 (Homo sapiens, UniProt Q6IQ55)
Chain of TTBK2 (Q6IQ55 whole entry): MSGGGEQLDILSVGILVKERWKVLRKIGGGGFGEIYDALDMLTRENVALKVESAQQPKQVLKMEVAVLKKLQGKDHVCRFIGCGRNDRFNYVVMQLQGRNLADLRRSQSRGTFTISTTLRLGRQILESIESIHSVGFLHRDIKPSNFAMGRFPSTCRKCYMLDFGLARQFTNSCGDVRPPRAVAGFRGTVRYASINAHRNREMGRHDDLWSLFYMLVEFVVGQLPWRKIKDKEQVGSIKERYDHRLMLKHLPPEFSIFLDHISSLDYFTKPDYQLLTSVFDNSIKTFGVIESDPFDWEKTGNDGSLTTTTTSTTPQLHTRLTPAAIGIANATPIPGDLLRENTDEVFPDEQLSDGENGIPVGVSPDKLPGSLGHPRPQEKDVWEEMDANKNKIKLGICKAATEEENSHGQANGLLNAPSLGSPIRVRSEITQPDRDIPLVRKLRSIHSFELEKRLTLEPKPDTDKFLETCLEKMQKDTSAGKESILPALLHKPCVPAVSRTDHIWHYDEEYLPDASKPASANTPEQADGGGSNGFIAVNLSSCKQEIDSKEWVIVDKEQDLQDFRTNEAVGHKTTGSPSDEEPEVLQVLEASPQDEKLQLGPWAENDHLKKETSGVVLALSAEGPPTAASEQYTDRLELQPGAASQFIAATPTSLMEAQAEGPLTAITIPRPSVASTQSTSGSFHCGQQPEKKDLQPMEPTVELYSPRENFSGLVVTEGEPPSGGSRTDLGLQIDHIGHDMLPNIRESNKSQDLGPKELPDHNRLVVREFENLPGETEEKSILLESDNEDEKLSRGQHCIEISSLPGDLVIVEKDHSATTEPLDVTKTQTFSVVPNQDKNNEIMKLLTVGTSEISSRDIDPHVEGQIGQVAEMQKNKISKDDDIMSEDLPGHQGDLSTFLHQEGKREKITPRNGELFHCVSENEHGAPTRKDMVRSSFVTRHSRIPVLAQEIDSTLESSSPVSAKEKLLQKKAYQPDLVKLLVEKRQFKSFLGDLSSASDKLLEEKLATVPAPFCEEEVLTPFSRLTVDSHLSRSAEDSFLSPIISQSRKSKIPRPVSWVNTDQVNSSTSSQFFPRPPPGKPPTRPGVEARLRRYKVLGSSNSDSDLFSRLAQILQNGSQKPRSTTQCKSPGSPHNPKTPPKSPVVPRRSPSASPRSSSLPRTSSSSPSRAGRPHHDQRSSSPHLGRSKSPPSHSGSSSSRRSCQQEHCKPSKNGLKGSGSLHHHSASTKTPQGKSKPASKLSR

STK33 = STK33 (Homo sapiens, UniProt Q9BYT3); conditions: read-out: Remaining protein kinase activity
Chain of STK33 (Q9BYT3 whole entry): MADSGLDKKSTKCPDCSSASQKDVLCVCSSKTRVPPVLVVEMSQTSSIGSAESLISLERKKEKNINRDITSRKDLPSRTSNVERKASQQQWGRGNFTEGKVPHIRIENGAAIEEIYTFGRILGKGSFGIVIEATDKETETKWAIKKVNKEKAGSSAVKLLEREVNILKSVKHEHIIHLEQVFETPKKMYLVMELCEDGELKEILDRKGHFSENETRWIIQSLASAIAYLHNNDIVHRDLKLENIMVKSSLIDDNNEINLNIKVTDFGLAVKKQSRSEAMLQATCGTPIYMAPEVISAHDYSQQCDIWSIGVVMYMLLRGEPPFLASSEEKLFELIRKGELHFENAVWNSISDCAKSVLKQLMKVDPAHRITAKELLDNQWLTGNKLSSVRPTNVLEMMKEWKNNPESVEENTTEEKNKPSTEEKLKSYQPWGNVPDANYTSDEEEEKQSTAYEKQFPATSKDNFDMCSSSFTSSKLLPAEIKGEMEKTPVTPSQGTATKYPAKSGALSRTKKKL

DDR2 = target: T2, DDR2 (Homo sapiens, UniProt Q16832); conditions: read-out: Remaining protein kinase activity
T2 sequence (Q16832 22-855): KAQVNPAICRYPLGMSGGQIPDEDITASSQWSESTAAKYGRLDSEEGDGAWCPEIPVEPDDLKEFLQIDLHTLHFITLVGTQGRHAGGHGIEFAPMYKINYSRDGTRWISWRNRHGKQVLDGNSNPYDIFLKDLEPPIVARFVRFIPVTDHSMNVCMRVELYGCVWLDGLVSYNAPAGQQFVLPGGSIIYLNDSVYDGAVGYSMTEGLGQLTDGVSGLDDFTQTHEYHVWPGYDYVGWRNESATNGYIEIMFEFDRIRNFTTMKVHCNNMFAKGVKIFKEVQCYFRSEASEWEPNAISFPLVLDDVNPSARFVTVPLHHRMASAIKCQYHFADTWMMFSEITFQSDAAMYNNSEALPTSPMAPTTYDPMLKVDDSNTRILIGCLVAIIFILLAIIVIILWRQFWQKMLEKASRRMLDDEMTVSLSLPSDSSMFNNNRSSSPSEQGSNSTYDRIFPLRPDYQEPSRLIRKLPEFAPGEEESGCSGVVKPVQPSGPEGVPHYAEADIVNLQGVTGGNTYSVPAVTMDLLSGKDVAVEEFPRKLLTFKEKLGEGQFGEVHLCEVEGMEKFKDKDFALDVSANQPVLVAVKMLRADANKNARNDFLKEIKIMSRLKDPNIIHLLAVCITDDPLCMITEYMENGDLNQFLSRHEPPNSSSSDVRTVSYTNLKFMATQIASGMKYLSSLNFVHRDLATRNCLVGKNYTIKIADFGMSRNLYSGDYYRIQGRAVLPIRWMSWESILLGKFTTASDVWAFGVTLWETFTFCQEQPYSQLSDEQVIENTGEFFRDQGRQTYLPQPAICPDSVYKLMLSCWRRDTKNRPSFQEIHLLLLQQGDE

BTK = BTK (Homo sapiens, UniProt Q06187)
Chain of BTK (Q06187 whole entry): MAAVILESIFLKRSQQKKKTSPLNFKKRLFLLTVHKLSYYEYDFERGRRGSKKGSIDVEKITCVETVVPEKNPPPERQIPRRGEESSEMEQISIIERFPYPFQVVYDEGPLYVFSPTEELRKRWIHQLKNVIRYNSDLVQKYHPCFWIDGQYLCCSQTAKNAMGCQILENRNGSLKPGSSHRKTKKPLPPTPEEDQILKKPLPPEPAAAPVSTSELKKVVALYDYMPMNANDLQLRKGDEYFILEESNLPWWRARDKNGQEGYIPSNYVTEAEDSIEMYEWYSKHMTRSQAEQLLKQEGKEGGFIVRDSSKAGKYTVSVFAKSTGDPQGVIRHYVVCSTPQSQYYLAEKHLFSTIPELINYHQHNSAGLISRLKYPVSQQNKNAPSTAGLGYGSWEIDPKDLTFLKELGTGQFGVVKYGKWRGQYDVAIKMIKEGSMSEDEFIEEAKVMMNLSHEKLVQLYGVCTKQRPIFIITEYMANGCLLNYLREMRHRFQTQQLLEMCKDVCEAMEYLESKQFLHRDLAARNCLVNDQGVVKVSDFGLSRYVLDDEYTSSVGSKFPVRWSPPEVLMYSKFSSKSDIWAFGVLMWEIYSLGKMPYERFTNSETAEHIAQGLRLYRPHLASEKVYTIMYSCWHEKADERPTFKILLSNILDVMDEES

MARK2 = MARK2 (Homo sapiens, UniProt Q7KZI7); conditions: read-out: Remaining protein kinase activity
Chain of MARK2 (Q7KZI7 whole entry): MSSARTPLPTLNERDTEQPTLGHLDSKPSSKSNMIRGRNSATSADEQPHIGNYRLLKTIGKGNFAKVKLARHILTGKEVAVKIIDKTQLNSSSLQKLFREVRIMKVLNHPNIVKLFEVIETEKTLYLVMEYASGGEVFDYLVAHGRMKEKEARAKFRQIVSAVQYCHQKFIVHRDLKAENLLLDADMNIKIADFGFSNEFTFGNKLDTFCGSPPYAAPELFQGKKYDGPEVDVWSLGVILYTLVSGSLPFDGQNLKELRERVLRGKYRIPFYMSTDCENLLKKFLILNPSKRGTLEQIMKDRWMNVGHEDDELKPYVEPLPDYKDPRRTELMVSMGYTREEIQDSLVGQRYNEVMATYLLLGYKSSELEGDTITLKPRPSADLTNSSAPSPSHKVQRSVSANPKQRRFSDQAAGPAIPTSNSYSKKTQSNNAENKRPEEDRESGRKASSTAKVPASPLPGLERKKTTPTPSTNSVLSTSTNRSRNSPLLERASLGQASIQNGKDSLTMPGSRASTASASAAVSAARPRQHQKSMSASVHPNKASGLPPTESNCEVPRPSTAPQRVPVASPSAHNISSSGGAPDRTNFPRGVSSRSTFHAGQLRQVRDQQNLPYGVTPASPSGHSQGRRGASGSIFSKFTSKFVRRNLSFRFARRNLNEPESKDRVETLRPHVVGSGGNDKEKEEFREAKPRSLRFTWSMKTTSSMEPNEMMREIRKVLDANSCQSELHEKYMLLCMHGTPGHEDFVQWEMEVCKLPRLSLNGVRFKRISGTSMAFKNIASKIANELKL

ERK1 = ERK1 (Homo sapiens, UniProt P27361); conditions: read-out: Remaining protein kinase activity
Chain of ERK1 (P27361 whole entry, species assumed): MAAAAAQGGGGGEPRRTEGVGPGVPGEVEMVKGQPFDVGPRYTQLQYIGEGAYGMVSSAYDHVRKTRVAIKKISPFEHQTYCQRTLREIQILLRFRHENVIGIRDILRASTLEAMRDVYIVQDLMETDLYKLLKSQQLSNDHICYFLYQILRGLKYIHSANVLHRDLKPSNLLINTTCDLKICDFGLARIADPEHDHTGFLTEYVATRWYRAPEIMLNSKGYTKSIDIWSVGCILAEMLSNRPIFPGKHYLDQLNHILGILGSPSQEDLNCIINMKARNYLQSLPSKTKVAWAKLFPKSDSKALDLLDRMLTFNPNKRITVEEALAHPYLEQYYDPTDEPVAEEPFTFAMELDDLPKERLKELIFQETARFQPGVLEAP

TAK1 = target: T3, TAK1 (Homo sapiens, UniProt O43318); conditions: read-out: Remaining protein kinase activity
T3 sequence (O43318 1-303 limits assumed): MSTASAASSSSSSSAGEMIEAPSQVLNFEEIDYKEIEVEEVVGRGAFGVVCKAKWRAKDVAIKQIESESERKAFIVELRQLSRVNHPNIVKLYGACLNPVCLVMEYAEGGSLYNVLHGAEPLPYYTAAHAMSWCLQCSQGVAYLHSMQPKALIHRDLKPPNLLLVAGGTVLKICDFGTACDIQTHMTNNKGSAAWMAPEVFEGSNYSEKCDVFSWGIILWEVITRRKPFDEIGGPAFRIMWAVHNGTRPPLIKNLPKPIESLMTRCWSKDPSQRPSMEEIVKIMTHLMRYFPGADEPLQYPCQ

Chain of PAK6 (Q9NQU5 whole entry): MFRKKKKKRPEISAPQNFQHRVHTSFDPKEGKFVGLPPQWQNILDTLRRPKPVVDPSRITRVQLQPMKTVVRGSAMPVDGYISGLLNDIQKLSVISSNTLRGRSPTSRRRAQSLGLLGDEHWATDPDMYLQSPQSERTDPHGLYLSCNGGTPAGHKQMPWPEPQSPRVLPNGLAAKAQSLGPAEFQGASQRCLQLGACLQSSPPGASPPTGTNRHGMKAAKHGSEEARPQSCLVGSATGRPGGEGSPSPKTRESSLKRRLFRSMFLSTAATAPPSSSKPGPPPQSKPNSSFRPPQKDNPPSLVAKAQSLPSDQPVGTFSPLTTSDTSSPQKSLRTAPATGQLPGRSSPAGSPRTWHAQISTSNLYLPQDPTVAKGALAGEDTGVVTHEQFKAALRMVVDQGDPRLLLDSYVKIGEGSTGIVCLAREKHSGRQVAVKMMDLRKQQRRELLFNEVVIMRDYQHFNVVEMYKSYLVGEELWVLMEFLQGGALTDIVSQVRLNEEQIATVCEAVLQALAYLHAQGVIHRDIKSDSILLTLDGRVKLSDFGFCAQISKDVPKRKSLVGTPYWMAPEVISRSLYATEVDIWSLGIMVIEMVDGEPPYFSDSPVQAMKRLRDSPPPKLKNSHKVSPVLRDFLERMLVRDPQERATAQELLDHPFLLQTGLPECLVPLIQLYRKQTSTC

COc1ccc2sc(-c3cncc(N)c3)nc2c1 [compound 1, 5-(5-Methoxybenzo[d]thiazol-2-yl)pyridin-3-amine]
remaining activity at 1 µM (PAK6; PAK6, 1 μM): 108%
remaining activity at 100 µM (PAK6; PAK6, 100 μM): 80%
remaining activity at 1 µM (GCK; GCK, 1 μM): 105%
remaining activity at 100 µM (GCK; GCK, 100 μM): 28%
remaining activity at 1 µM (RSK2; RSK2, 1 μM): 115%
remaining activity at 100 µM (RSK2; RSK2, 100 μM): 56%
Remaining protein kinase activity (TTBK2; 1 μM): 123%
Remaining protein kinase activity (TTBK2; 100 μM): 103%
remaining activity at 1 µM (STK33; STK33, 1 μM): 111%
remaining activity at 100 µM (STK33; STK33, 100 μM): 57%
remaining activity at 1 µM (DDR2; DDR2, 1 μM): 107%
remaining activity at 100 µM (DDR2; DDR2, 100 μM): 49%
Remaining protein kinase activity (BTK; 1 μM): 101%
Remaining protein kinase activity (BTK; 100 μM): 31%
remaining activity at 1 µM (MARK2; MARK2, 1 μM): 112%
remaining activity at 100 µM (MARK2; MARK2, 100 μM): 62%
remaining activity at 1 µM (ERK1; ERK1, 1 μM): 99%
remaining activity at 100 µM (ERK1; ERK1, 100 μM): 81%
remaining activity at 1 µM (TAK1; TAK1, 1 μM): 70%
remaining activity at 100 µM (TAK1; TAK1, 100 μM): 6%

COc1ccc2sc(-c3cncc(NC(C)=O)c3)nc2c1 [PST-001, N-(5-(5-Methoxybenzo[d]thiazol-2-yl)pyridin-3-yl)acetamide]
remaining activity at 1 µM (PAK6): 112%
remaining activity at 100 µM (PAK6): 113%
remaining activity at 1 µM (GCK): 118%
remaining activity at 100 µM (GCK): 123%
remaining activity at 1 µM (RSK2): 113%
remaining activity at 100 µM (RSK2): 100%
Remaining protein kinase activity (TTBK2; 1 μM): 119%
Remaining protein kinase activity (TTBK2; 100 μM): 117%
remaining activity at 1 µM (STK33): 113%
remaining activity at 100 µM (STK33): 112%
remaining activity at 1 µM (DDR2): 98%
remaining activity at 100 µM (DDR2): 80%
Remaining protein kinase activity (BTK; 1 μM): 92%
Remaining protein kinase activity (BTK; 100 μM): 86%
remaining activity at 1 µM (MARK2): 116%
remaining activity at 100 µM (MARK2): 106%
remaining activity at 1 µM (ERK1): 109%
remaining activity at 100 µM (ERK1): 108%
remaining activity at 1 µM (TAK1): 48%
remaining activity at 100 µM (TAK1): 63%
